This is an account of results in publication PMC12652692, “Synthesis and In Vitro Anticancer Evaluation of Novel Phosphonium Derivatives of Chrysin” (International Journal of Molecular Sciences, 2025).

Structures are written as SMILES.

Assay in all cases: NCI60 five-dose screen
Holding throughout (format): cell-based

In one assay the test system is 786-0. Particulars: Homo sapiens; 786-0, Renal Cancer. As to the method:
(§1) Since all new conjugates (3a–h) had notable antiproliferative activities on several tumor cell lines in the course of the one-dose screening, they were subjected to a five-dose test. […] J. Mol. Sci. 2025, 26, 11063 10 of 10 S.3. NCI60 Screening A detailed description of the NCI screening procedures can also be found on the website of NCI [39], and in our previous work. S.3.1. One-Dose Screen All candidates were examined at first at a single high dose (10 μM) in the full NCI60 cell panel. The value reported for the one-dose test is growth relative to the no-drug control and relative to the time zero number of cells. This made possible the disclosure of both growth inhibition (numbers between 0 and 100) and lethality (numbers less than 0). For example, a value of 100 means no growth inhibition. A value of 20 would mean 80% growth inhibition. A value of 0 means no net growth over the course of the analysis. A value of −20 would mean 20% lethality. A value of −100 means all cells are dead. S.3.2. […] The human tumor cell lines of the cancer screening panel were grown in RPMI 1640 medium containing 5% fetal bovine serum and 2 mM l-glutamine. Characteristically, cells were injected in 96-well microtiter plates in 0.1 mL at plating densities ranging from 5000 to 40,000 cells/well, depending on the doubling time of individual cell lines. After cell inoculation, the microtiter plates were incubated at 37 °C, 5% carbon dioxide, 95% air, and 100% relative humidity for 24 hours before the addition of tested compounds. After 24 hours, 2 plates of each cell line were fixed in situ with Cl3COOH (TCA), to represent a measurement of the cell population for each cell line at the time of drug addition (tz). Tested compounds were solubilized in DMSO at 400-fold the desired final maximum test concentration and stored frozen before application. In the course of the drug addition, an aliquot of frozen concentrate was thawed and diluted to twice the desired final maximum test concentration with a complete medium containing 50 μg mL−1 gentamicin. Additional four, 10-fold or ½ log serial dilutions were produced to furnish a total of five drug concentrations plus control. Aliquots of 0.1 mL of these different drug dilutions were added to the appropriate microtiter wells already containing 0.1 mL of medium, resulting in the required final drug concentrations. Following drug addition, the plates were incubated at 37 °C, 5% carbon dioxide, 95% air, and 100% relative humidity for an additional 48 hours. For adherent cells, the test was finished by the addition of cold Cl3COOH. Cells were fixed in situ by the addition of 50 μL of cold 50% (w/v) Cl3COOH, and incubated at 4 °C for 1 hour. The supernatant was discarded, and the plates were washed with H2O (5×) and dried in air. Sulforhodamine B (SRB) solution (0.1 mL) at 0.4% (w/v) in 1% CH3COOH was added to each well, and plates were incubated at RT for 10 min. After staining, the unbound dye was removed by washing five times with 1% CH3COOH, and the plates were dried in the air. The bound stain is afterward solubilized with a 10 mM trizma base, and the absorbance is read on an automated plate reader at λ = 515 nm. Utilizing the seven absorbance measurements [time zero (tz), control growth (c), and test growth in the presence of the drug at the five concentration levels (ti)], the percentage growth was determined at each of the drug concentration levels. Growth inhibition (%) was calculated as: [(ti − tz)/(c − tz)] × 100, for concentrations where ti ≥ tz (1) [(ti − tz)/(tz)] × 100, for concentrations where ti < tz. (2) Three dose‒response parameters were calculated as follows. GI50 (growth inhibition of 50%) was determined from Equation (3), which is the drug concentration resulting in a 50% reduction in the net protein increase (as measured by SRB staining) in control cells in the course of the drug incubation. [(ti − tz)/(c − tz)] × 100 = 50 (3)

The subject of another assay is A498. The note with it: Homo sapiens; A498, Renal Cancer. As to the method: as §1
The subject of a further assay is A549/ATCC. Particulars: Homo sapiens, Non-small-Cell Lung Cancer. As to the method:
as §1

In a further assay the test system is BT-549. The note with it: Homo sapiens; BT-549, Breast Cancer. As to the method:
as §1

Another assay deals with CCRF-CEM. Particulars: Homo sapiens, Leukemia. As to the method:
as §1

The test system of another assay is DU-145. The note with it: Homo sapiens; DU-145, Prostate Cancer. As to the method:
as §1

A further assay concerns HOP-62. Particulars: Homo sapiens; HOP-62, Non-small-Cell Lung Cancer. Here is the method: as §1
In another assay the test system is HT29. Particulars: Homo sapiens, HT-29; HT29, Colon Cancer. Here is the method:
as §1

In a further assay the test system is K-562. The note with it: Homo sapiens, K562; K-562, Leukemia. As to the method:
as §1

The next assay has as its system KM12. The note with it: Homo sapiens; KM12, Colon Cancer. Here is the method:
as §1

For the next assay, the system named is MDA-MB-435. The note with it: Homo sapiens; MDA-MB-435, Melanoma. As to the method:
as §1

A further assay relates to NCI-H23. The note with it: Homo sapiens; NCI-H23, Non-small-Cell Lung Cancer. As to the method: as §1
Another assay relates to NCI-H322M. The note with it: Homo sapiens, Non-small-Cell Lung Cancer. As to the method: as §1
A further assay relates to NCI/ADR-RES. Particulars: Homo sapiens, Ovarian Cancer. Here is the method: as §1
The next assay deals with RXF 393. The note with it: Homo sapiens; RXF 393, Renal Cancer. Here is the method:
as §1

For the next assay, the system named is SF-295. Particulars: Homo sapiens; SF-295, CNS Cancer. Here is the method:
as §1

The test system of a further assay is SK-MEL-28. The note with it: Homo sapiens; SK-MEL-28, Melanoma. As to the method: as §1
A further assay relates to SK-MEL-2. The note with it: Homo sapiens; SK-MEL-2, Melanoma. Here is the method: as §1
The next assay has as its system SK-OV-3. The note with it: Homo sapiens; SK-OV-3, Ovarian Cancer. Here is the method: as §1
For a further assay, the system named is SNB-19. Particulars: Homo sapiens; SNB-19, CNS Cancer. Here is the method: as §1
The next assay has as its system T-47D. The note with it: Homo sapiens, T47D, Breast Cancer. Here is the method: as §1
Another assay relates to UO-31. Particulars: Homo sapiens; UO-31, Renal Cancer. Here is the method:
as §1

Turning to `O=c1cc(-c2ccccc2)oc2cc(OCCCC[P+](c3ccccc3)(c3ccccc3)c3ccccc3)cc(O)c12` [3a], the GI50 in the assay with 786-0 came to 553 nM; in the assay on A498 it was 422 nM; in the assay with A549/ATCC, 908 nM; in the assay on BT-549 it was 257 nM; in the assay on CCRF-CEM it was 335 nM; in the assay on DU-145, 507 nM. Moreover, the GI50 with HOP-62 stood at 480 nM; in the assay with HT29, 1280 nM; with K-562 it was 216 nM; in the assay with KM12, 401 nM; with MDA-MB-435, 299 nM; with NCI-H23, 302 nM. Moreover, the GI50 is 976 nM with NCI-H322M; 3290 nM with NCI/ADR-RES; 225 nM with RXF 393; 297 nM in the assay with SF-295; 474 nM in the assay with SK-MEL-28; 238 nM in the assay with SK-MEL-2. The GI50 with SK-OV-3 stood at 329 nM; in the assay with SNB-19, 279 nM; with T-47D, 228 nM; in the assay on UO-31, 1240 nM.

With `Cc1ccc([P+](CCCCOc2cc(O)c3c(=O)cc(-c4ccccc4)oc3c2)(c2ccc(C)cc2)c2ccc(C)cc2)cc1` [3b], the GI50 with 786-0 worked out at 373 nM; in the assay on A498, 400 nM; with A549/ATCC it was 393 nM; in the assay with BT-549, 344 nM; in the assay with CCRF-CEM it was 324 nM; in the assay with DU-145, 223 nM. In addition, the GI50 worked out at 307 nM in the assay with HOP-62; 855 nM in the assay on HT29; 137 nM in the assay on K-562; 160 nM in the assay on KM12; 238 nM in the assay with MDA-MB-435; 241 nM with NCI-H23. Further, the GI50 in the assay on NCI-H322M amounted to 532 nM; with NCI/ADR-RES, 1180 nM; with RXF 393, 333 nM; in the assay with SF-295 it was 215 nM; in the assay on SK-MEL-28 it was 514 nM; with SK-MEL-2 it was 246 nM. In addition, the GI50 with SK-OV-3 was 301 nM; with SNB-19, 295 nM; in the assay with T-47D it was 105 nM; in the assay on UO-31, 177 nM.

As to `COc1ccc([P+](CCCCOc2cc(O)c3c(=O)cc(-c4ccccc4)oc3c2)(c2ccc(OC)cc2)c2ccc(OC)cc2)cc1` [3c], the GI50 in the assay with 786-0 is 1210 nM; with A498, 1570 nM; with A549/ATCC, 600 nM; in the assay on BT-549, 349 nM; with CCRF-CEM it was 367 nM; in the assay on DU-145, 410 nM. In addition, the GI50 turned out to be 732 nM in the assay with HOP-62; 1250 nM in the assay on HT29; 376 nM with K-562; 207 nM in the assay with KM12; 319 nM with MDA-MB-435; 423 nM in the assay with NCI-H23. The GI50 was 1420 nM with NCI-H322M; 2600 nM with NCI/ADR-RES; 257 nM in the assay with RXF 393; 1060 nM with SF-295; 453 nM in the assay on SK-MEL-28; 301 nM in the assay with SK-MEL-2. In addition, the GI50 in the assay on SK-OV-3 was 382 nM; with SNB-19, 333 nM; in the assay with T-47D, 302 nM; with UO-31, 1480 nM.

Regarding `O=c1cc(-c2ccccc2)oc2cc(OCCCC[P+](c3ccc(F)cc3)(c3ccc(F)cc3)c3ccc(F)cc3)cc(O)c12` [3d], the GI50 in the assay on 786-0 was found to be 1830 nM; in the assay with A498, 2070 nM; in the assay with A549/ATCC, 3210 nM; in the assay on BT-549, 1610 nM; in the assay with CCRF-CEM it was 2310 nM; in the assay with DU-145, 1720 nM. The GI50 in the assay with HOP-62 is 1560 nM; with HT29, 1840 nM; in the assay with K-562, 1400 nM; in the assay on KM12, 1700 nM; with MDA-MB-435 it was 1550 nM; in the assay on NCI-H23, 1650 nM. Besides, the GI50 in the assay on NCI-H322M amounted to 1990 nM; in the assay on NCI/ADR-RES, 15900 nM; with RXF 393, 1820 nM; in the assay with SF-295, 1520 nM; with SK-MEL-28 it was 1690 nM; with SK-MEL-2, 1730 nM. Besides, the GI50 was determined as 1620 nM in the assay with SK-OV-3, 1670 nM in the assay on SNB-19, 1450 nM in the assay on T-47D and 1850 nM in the assay on UO-31.

For the compound `O=c1cc(-c2ccccc2)oc2cc(OCCCC[P+](C3CCCCC3)(C3CCCCC3)C3CCCCC3)cc(O)c12` [3e], the GI50 was 1570 nM with 786-0; 1690 nM in the assay with A498; 1330 nM in the assay with A549/ATCC; 709 nM with BT-549; 477 nM in the assay on CCRF-CEM; 1240 nM in the assay with DU-145. Further, the GI50 was found to be 1560 nM with HOP-62; 1770 nM in the assay on HT29; 402 nM in the assay with K-562; 382 nM in the assay with KM12; 341 nM in the assay on MDA-MB-435; 1340 nM with NCI-H23. Further, the GI50 with NCI-H322M came to 1580 nM; in the assay with NCI/ADR-RES, 8440 nM; in the assay with RXF 393, 461 nM; in the assay on SF-295 it was 1400 nM; in the assay on SK-MEL-28 it was 423 nM; in the assay on SK-MEL-2, 1320 nM. The GI50 came out at 1470 nM in the assay on SK-OV-3, 505 nM in the assay with SNB-19, 397 nM in the assay on T-47D and 1610 nM with UO-31.

Take `Cc1ccccc1[P+](CCCCOc1cc(O)c2c(=O)cc(-c3ccccc3)oc2c1)(c1ccccc1C)c1ccccc1C` [3g]: the GI50 is 291 nM in the assay with 786-0; 462 nM in the assay on A498; 417 nM in the assay on A549/ATCC; 291 nM with BT-549; 242 nM with CCRF-CEM; 376 nM in the assay with DU-145. The GI50 was found to be 332 nM with HOP-62; 1220 nM in the assay on HT29; 279 nM with K-562; 280 nM in the assay with KM12; 320 nM in the assay with MDA-MB-435; 243 nM in the assay on NCI-H23. The GI50 is 1380 nM in the assay with NCI-H322M; 2140 nM in the assay on NCI/ADR-RES; 648 nM in the assay on SF-295; 323 nM in the assay on SK-MEL-28; 194 nM in the assay on SK-MEL-2; 277 nM in the assay on SK-OV-3. In addition, the GI50 was 353 nM in the assay on SNB-19, 208 nM in the assay on T-47D and 1770 nM in the assay with UO-31.

In general, GI50 refers to the concentration at which growth is held to half of that of the control. High values mean less potent growth inhibition, low ones more potent growth inhibition.
